Data on five molecules can be found in patent US4556715A, “Nicotinic acid derivatives” (Kyorin Pharmaceutical Co., Ltd., priority 1980, dated 1985).

Like-named read-outs stand apart in the source and are kept apart here.

The subject of data set [1] is serum and liver lipid levels in rats. The data set can be described thus: Serum and liver lipid levels and relative liver weight in rats (100 mg/kg, 10 days). Conditions: for response vs control in vivo at 100 mg/kg: Rattus norvegicus, po; for response vs control in vivo at 100 mg/kg / Relative liver weight, relative to Control (100): in parentheses, Control = (100); for Liver lipid levels Ch / Liver lipid levels PL / Liver lipid levels TG / Relative liver weight / Serum lipid levels Ch / Serum lipid levels PL / Serum lipid levels TG: 100 mg/kg p.o. 10 days, Mean ± S.E. (n = 9). The class given is in vivo, Male rats of the Wistar strain. As for the experimental part: (2) Male rats of the Wistar strain weighing 160-180 g were fed a stock deit (CE-2, Japan CLEA, Tokyo) and water ad libitum. The present compounds and KCD-232 were suspended, respectively, in a 0.5% of CMC solution and give orally to rats once a day at a dose of 100 mg/kg b.w. for 10 days.
Control rats were received the 0.5% CMC solution alone. The diet was withdrawn immediately after the last administration of compounds. Animals were sacrificed by decapitation 4 hr after the last administration and blood was collected, clotted and centrifuged to obtain serum. The liver was excised quickly and weighed. Total lipids were extracted from the serum and liver, and the levels of Ch, TG and PL were determined colorimetrically.

Data set [2] deals with serum and liver lipid levels in normal rats. The data set can be described thus: Effects on relative liver weight, serum and liver lipid levels in normal rats (100 mg/kg, 7 days). The class given is in vivo, Male Wistar strain rats. How it is done: (1) Effects on relative liver weight, serum and liver lipid levels in normal rats
Male Wistar strain rats, weighing 180-210 g were orally administered the present compounds (X=Cl, n1 =2, 3, 4 and n2 =1) and 4-(4-chlorobenzyloxy)benzyl nicotinate (KCD-232), being X=Cl, n1 =1, n2 =1, respectively, which were suspended in 0.5% carboxymethyl cellulose (CMC) solution once a day at a dose of 100 mg/kg b.w. for 7 days. The last administration was occured in rats fasted overnight. At 4 hr later blood was withdrawn from jugular vein, clotted and centrifuged to obtain serum. The liver was rapidly removed and weighed. Total lipids were extracted from the serum and liver, and cholesterol (Ch), triglycerides (TG) and phospholipids (PL) levels were determined.

[3] abbreviates: 240 h, Table 2, read-out: Liver lipid levels PL, relative to Control (100).
The mark [4] stands for this setting: Table 2, read-out: Liver lipid levels Ch, relative to Control (100).
[5] abbreviates: Table 2, read-out: Liver lipid levels TG, relative to Control (100).
Where [6] appears, read: Table 2, read-out: Serum lipid levels Ch, relative to Control (100).
Setting [7] is: Table 2, read-out: Serum lipid levels PL, relative to Control (100).
[8] abbreviates: Table 2, read-out: Serum lipid levels TG, relative to Control (100).
Setting [9] is: Table 1, 100 mg/kg p.o. 7 days, fasted overnight, mean ± S.E. (n = 6).
Setting [10] is: Table 1, in parentheses, Control = (100).
[11] abbreviates: 240 h, Table 3, read-out: Liver lipid levels PL, relative to Control (100).
Where [12] appears, read: Table 3, read-out: Liver lipid levels Ch, relative to Control (100).
[13] abbreviates: Table 3, read-out: Liver lipid levels TG, relative to Control (100).
[14] abbreviates: Table 3, read-out: Serum lipid levels Ch, relative to Control (100).
Setting [15] is: Table 3, read-out: Serum lipid levels PL, relative to Control (100).
Where [16] appears, read: Table 3, read-out: Serum lipid levels TG, relative to Control (100).

With `O=C(OCc1ccc(OCCc2ccc(Cl)cc2)cc1)c1cccnc1` [n1=2, n2=1, 4-[2-(4-Chlorophenyl)ethoxy]benzyl nicotinate], the response vs control in vivo at 100 mg/kg in data set [1] (setting [3]) was determined as 102%. The response vs control in vivo at 100 mg/kg in data set [1] (setting [4]) is 96.7%. Besides, the response vs control in vivo at 100 mg/kg in data set [1] (setting [5]) stood at 87%. For the same molecule, in data set [1] (setting [6]), the response vs control in vivo at 100 mg/kg amounted to 76.7%. Besides, the response vs control in vivo at 100 mg/kg in data set [1] (setting [7]) was found to be 74%. Also, the response vs control in vivo at 100 mg/kg in data set [1] (setting [8]) stood at 44%. For the same molecule, in data set [1] (Table 2), the “Liver lipid levels Ch” value came to 2.94 ± 0.07 mg/g liver, the “Liver lipid levels PL” value was found to be 39.0 ± 0.7 mg/g liver, the “Liver lipid levels TG” value was 5.50 ± 0.59 mg/g liver and the Relative liver weight amounted to 3.98 ± 0.06 g/100 g b.w. In data set [1] (Table 2), the Serum lipid levels Ch was found to be 66.5 ± 2.2 mg/dL; the Serum lipid levels PL amounted to 110 ± 3.7 mg/dL; the Serum lipid levels TG came out at 54.4 ± 5 mg/dL; the “Relative liver weight, relative to Control (100)” value (“Relative liver weight … (100)” for short) came out at 103. Further, the “serum Ch, TG and PL (in words)” value in data set [2] (100 mg/kg p.o. 7 days, compared with control) is “significantly reduced serum Ch, TG and PL”. Moreover, in data set [2] (setting [9]), the “Liver lipid levels Ch” value came out at 3.78 ± 0.10 mg/g liver, the “Liver lipid levels PL” value is given as 37.2 ± 1.5 mg/g liver, the “Liver lipid levels TG” value is given as 11.49 ± 1.65 mg/g liver and the Serum lipid levels Ch was 53.5 ± 2.2 mg/dL. In data set [2] (setting [9]), this molecule came in with a Serum lipid levels PL of 69 ± 2.7 mg/dL and a Serum lipid levels TG of 22.4 ± 4.3 mg/dL. This molecule registered a Relative liver weight in data set [2] (Table 1, 100 mg/kg p.o. 7 days, mean ± S.E. (n = 6)) of 3.17 ± 0.10 g/100 g b.w. In data set [2] (setting [10]), the “Liver lipid levels Ch, relative to Control (100)” value was 107; the “Liver lipid levels PL, relative to Control (100)” value is 101; the “Liver lipid levels TG, relative to Control (100)” value was 156; the “Relative liver weight … (100)” value is 103. In data set [2] (setting [10]), the “Serum lipid levels Ch, relative to Control (100)” value amounted to 70; the “Serum lipid levels PL, relative to Control (100)” value is reported as 68; the “Serum lipid levels TG, relative to Control (100)” value was 66.
For the molecule `O=C(OCCCCc1ccc(OCc2ccc(Cl)cc2)cc1)c1cccnc1` [n1=1, n2=4, 4-[4-Chlorobenzyloxy)phenyl]butyl nicotinate], the response vs control in vivo at 100 mg/kg in data set [1] (setting [3]) amounted to 101%; in data set [1] (setting [11]), 101%; in data set [1] (setting [4]) it was 70.1%; in data set [1] (setting [5]), 106%; in data set [1] (setting [6]), 75.4%; in data set [1] (setting [7]) it was 77%. The response vs control in vivo at 100 mg/kg turned out to be 39.5% in data set [1] (setting [8]); 108% in data set [1] (setting [12]); 103% in data set [1] (setting [13]); 76% in data set [1] (setting [14]); 68.2% in data set [1] (setting [15]); 29.9% in data set [1] (setting [16]). Further, the “Liver lipid levels Ch” value in data set [1] (Table 2) was 2.13 ± 0.04 mg/g liver; in data set [1] (Table 3) it was 2.51 ± 0.11 mg/g liver. In addition, the “Liver lipid levels PL” value in data set [1] (Table 2) is 38.4 ± 0.7 mg/g liver; in data set [1] (Table 3), 36.7 ± 0.9 mg/g liver. The “Liver lipid levels TG” value in data set [1] (Table 2) came to 6.73 ± 0.51 mg/g liver; in data set [1] (Table 3) it was 7.42 ± 0.88 mg/g liver. Moreover, the Relative liver weight in data set [1] (Table 2) is reported as 4.44 ± 0.11 g/100 g b.w; in data set [1] (Table 3) it was 3.91 ± 0.10 g/100 g b.w. The Serum lipid levels Ch in data set [1] (Table 2) stood at 65.4 ± 1.4 mg/dL; in data set [1] (Table 3) it was 74.2 ± 2.5 mg/dL. The Serum lipid levels PL in data set [1] (Table 2) stood at 114 ± 2.5 mg/dL; in data set [1] (Table 3), 106 ± 3.6 mg/dL. Also, the Serum lipid levels TG in data set [1] (Table 2) turned out to be 48.9 ± 5.1 mg/dL; in data set [1] (Table 3), 37.6 ± 3 mg/dL. Also, the “Relative liver weight … (100)” value in data set [1] (Table 2) is recorded as 115; in data set [1] (Table 3) it was 103.
Turning to `O=C(OCCCCc1ccc(OCCCCc2ccc(Cl)cc2)cc1)c1cccnc1` [n1=4, n2=4, 4-{4-[4-(4-Chlorophenyl)butoxy]phenyl}butyl nicotinate], the response vs control in vivo at 100 mg/kg in data set [1] (setting [3]) is 107%. For the same molecule, the response vs control in vivo at 100 mg/kg in data set [1] (setting [4]) worked out at 79.3%. Also, the response vs control in vivo at 100 mg/kg in data set [1] (setting [5]) amounted to 112%. For the same molecule, the response vs control in vivo at 100 mg/kg in data set [1] (setting [6]) was 70.8%. In data set [1] (setting [7]), the response vs control in vivo at 100 mg/kg amounted to 69.2%. The response vs control in vivo at 100 mg/kg in data set [1] (setting [8]) was 31.5%. Besides, in data set [1] (Table 2), the “Liver lipid levels Ch” value is given as 2.41 ± 0.08 mg/g liver, the “Liver lipid levels PL” value is 40.9 ± 0.4 mg/g liver, the “Liver lipid levels TG” value is recorded as 7.11 ± 0.53 mg/g liver and the Relative liver weight is 3.90 ± 0.06 g/100 g b.w. In data set [1] (Table 2), the Serum lipid levels Ch came out at 61.4 ± 3.2 mg/dL; the Serum lipid levels PL turned out to be 103 ± 4.4 mg/dL; the Serum lipid levels TG was 39 ± 3.2 mg/dL; the “Relative liver weight … (100)” value turned out to be 101.
On to `O=C(OCCCCCCc1ccc(OCCCCCCc2ccc(Cl)cc2)cc1)c1cccnc1` [n1=6, n2=6, 6-{4-[6'-(4-Chlorophenyl)hexyloxy]phenyl}hexyl nicotinate], for which the response vs control in vivo at 100 mg/kg in data set [1] (setting [11]) is 107%. In addition, in data set [1] (setting [12]), the response vs control in vivo at 100 mg/kg turned out to be 103%. Besides, the response vs control in vivo at 100 mg/kg in data set [1] (setting [13]) is 64.3%. Besides, in data set [1] (setting [14]), the response vs control in vivo at 100 mg/kg is 79.3%. For the same molecule, the response vs control in vivo at 100 mg/kg in data set [1] (setting [15]) worked out at 64.9%. Further, the response vs control in vivo at 100 mg/kg in data set [1] (setting [16]) was determined as 23.7%. Also, in data set [1] (Table 3), the “Liver lipid levels Ch” value was determined as 2.38 ± 0.08 mg/g liver, the “Liver lipid levels PL” value is recorded as 38.7 ± 0.8 mg/g liver, the “Liver lipid levels TG” value is recorded as 4.62 ± 0.15 mg/g liver and the Relative liver weight is listed as 3.84 ± 0.10 g/100 g b.w. In data set [1] (Table 3), the Serum lipid levels Ch came out at 77.4 ± 3.8 mg/dL; the Serum lipid levels PL stood at 101 ± 3.7 mg/dL; the Serum lipid levels TG was 29.8 ± 1.5 mg/dL; the “Relative liver weight … (100)” value amounted to 101.
As for `O=C(OCCc1ccc(OCCCCc2ccc(Cl)cc2)cc1)c1cccnc1` [n1=4, n2=2, 4-[4-(4-Chlorophenyl)butoxy]phenethyl nicotinate], in data set [1] (setting [11]), the response vs control in vivo at 100 mg/kg amounted to 109%. In data set [1] (setting [12]), the response vs control in vivo at 100 mg/kg turned out to be 98.3%. The response vs control in vivo at 100 mg/kg in data set [1] (setting [13]) turned out to be 79.7%. Further, the response vs control in vivo at 100 mg/kg in data set [1] (setting [14]) worked out at 74%. Also, the response vs control in vivo at 100 mg/kg in data set [1] (setting [15]) turned out to be 67.1%. In addition, the response vs control in vivo at 100 mg/kg in data set [1] (setting [16]) amounted to 24.9%. In data set [1] (Table 3), the “Liver lipid levels Ch” value was 2.28 ± 0.09 mg/g liver, the “Liver lipid levels PL” value stood at 39.6 ± 0.9 mg/g liver, the “Liver lipid levels TG” value is 5.72 ± 0.40 mg/g liver and the Relative liver weight is reported as 4.03 ± 0.07 g/100 g b.w. For the same molecule, in data set [1] (Table 3), the Serum lipid levels Ch came to 72.2 ± 1.3 mg/dL; the Serum lipid levels PL amounted to 104 ± 3.7 mg/dL; the Serum lipid levels TG stood at 31.3 ± 3.6 mg/dL; the “Relative liver weight … (100)” value is on record as 106.
